Results as given in patent US20230414571A1, “APPLICATION OF SMALL-MOLECULE COMPOUND IN PREPARATION OF ANTITUMOR DRUG” (SOOCHOW UNIVERSITY, priority 2021, published 2023).
“Also recorded” adds a separate entry of the source.

Tests used:
[1] = tested on: U87MG tumor; experiment: U87MG tumor growth and survival in mice after various treatments; format: in vivo, nude mouse; conditions: for median survival time: mice with U87MG tumor, n=6 per group
Source text: In all different experimental groups (a and b in FIG. 10), the overall survival (OS) of mice treated with TMZ and compound 27 is the best. […] However, mouse death caused by glioma is reduced only 20 days […] treatment. After this period of time, the survival rates of the in-situ U87 heterogeneous tumor of the two single drug groups decreases rapidly due to malignant glioma.

[2] = Plasma pharmacokinetics in mice determined by GLMSD; format: in vivo, mouse; conditions: ip, TMZ injected into abdominal cavity of mouse, plasma, average of 8 mice
Description: It can be seen from FIG. 8-1 that the GLMSD platform can specifically acquire the pharmacokinetic data of small-molecule compound 27. Competitive advantages of GLMSD in pharmacokinetic research: (1) a complete drug blood concentration curve of each individual may be tracked; and (2) the total number of mice used in the test is reduced. Since the blood sample consumption of the GLMSD method is low (10 μL of blood per time point), one mouse can be used for completing the entire pharmacokinetic curve (blood sampling at 11 time points within 24 hours, and the minimum interval being 0.25 hour) of a drug.
Based on the advantage that the complete PK curve can be tested by means of the GLMSD, we observe that 3 (#2, #3 and #4) in 8 mice have the characteristic re-absorption peak of this small-molecule inhibitor at the time point of 8 h, and such a characteristic re-absorption peak hardly exists in other 5 mice. This significant phenomenon is related to drug uptake differences between individuals, prompting that compound 27 may re-enter blood circulation by means of a secondary absorption pathway. In the mode of continuous multiple administration (c in FIG. 8-2), pharmacokinetic data of compound 27 (40 mg/kg) was collected from each mouse every day (1, 3, 6, and 8 hours after last administration) for 5 days. For a single dose (a in FIG. 8-2) or a continuous multi-dose (d in FIG. 8-2) administration manner, a limitation of a conventional LC-MS technology lies in obtaining a single data point of pharmacokinetics of a drug by sacrificing one mouse, whereas GLMSD can break through this limitation by providing a complete pharmacokinetic curve based on a single mouse.

[3] = target: T1, hexokinase 2 (HK2) (Homo sapiens, UniProt P52789); experiment: HK2 activity test on GLMSD platform (graphite dots MALDI-MS); format: biochemical; conditions: for inhibitory effect on the HK2: inhibition curves FIGS. 3-7, colorimetric kit and GLMSD; for inhibition at 20 µM: read-out: inhibition rate of HK2 activity
T1 sequence (P52789 1-917): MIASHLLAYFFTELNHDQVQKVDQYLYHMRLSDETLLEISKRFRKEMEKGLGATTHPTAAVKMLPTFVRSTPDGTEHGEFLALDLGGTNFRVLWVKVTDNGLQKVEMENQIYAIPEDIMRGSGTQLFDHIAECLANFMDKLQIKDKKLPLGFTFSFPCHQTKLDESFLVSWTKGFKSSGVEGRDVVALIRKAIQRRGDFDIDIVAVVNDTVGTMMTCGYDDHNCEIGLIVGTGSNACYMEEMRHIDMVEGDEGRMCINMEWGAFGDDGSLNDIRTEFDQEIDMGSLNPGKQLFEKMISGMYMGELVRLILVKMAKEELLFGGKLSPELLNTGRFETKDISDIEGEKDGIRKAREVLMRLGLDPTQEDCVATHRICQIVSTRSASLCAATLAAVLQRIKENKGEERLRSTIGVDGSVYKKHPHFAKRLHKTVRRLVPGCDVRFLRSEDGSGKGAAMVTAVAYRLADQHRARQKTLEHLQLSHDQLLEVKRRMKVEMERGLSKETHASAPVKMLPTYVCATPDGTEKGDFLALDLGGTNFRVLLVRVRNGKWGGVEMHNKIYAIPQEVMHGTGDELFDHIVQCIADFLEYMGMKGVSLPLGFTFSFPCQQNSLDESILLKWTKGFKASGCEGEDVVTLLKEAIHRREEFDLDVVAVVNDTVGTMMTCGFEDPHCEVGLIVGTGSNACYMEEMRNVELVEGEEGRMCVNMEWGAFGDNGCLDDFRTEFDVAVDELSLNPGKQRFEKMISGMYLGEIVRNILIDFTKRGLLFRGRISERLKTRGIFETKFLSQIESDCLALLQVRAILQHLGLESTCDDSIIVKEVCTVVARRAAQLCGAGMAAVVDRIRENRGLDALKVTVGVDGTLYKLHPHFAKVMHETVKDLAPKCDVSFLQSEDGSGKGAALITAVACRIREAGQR
Description: GDs were dispersed in water at a concentration of 1 mg/mL as a matrix solution to be used. A sample was prepared by using a quick-drying method: firstly, 1 μL of matrix solution was dropped onto a target plate, and after natural drying at a room temperature in a […], 1 μL of sample to be analyzed was dropped onto a surface of the dried matrix, and after the sample was naturally dried, mass spectrometry was directly performed:
An instrument in the MALDI-MS was a Bruker Ultraflex III TOF/TOF mass spectrometer, which was mainly in a reflection positive and negative ion mode. Nd of 355 nm for instrument parameter: YAG laser had laser energy of 30% corresponding to 57 μJ per pulse (laser pulse duration: 3 ns), a laser spot size was about 50-100 μm, each sample was repeatedly tested four times, and 3000 laser spots were accumulated in each mass spectrum. All samples were measured under the same instrumental conditions.
an inhibition rate=(1−B/A)×100%, where • A was: a glucose concentration in a pre-reaction solution without the inhibitor-a glucose concentration in a post-reaction solution without the inhibitor, • B was: a glucose concentration in a pre-reaction solution with the inhibitor-a glucose concentration in a post-reaction solution with the inhibitor, and • a glucose concentration in the reaction solution=(mass spectrum signal strength of [glucose+Na]+/mass spectrum signal strength of [glucose-1-^13C+Na]+)×known concentration of glucose-1-^13C.

[4] = tested on: cranial nerve glioma cell U87; experiment: Antiproliferative activity against cranial nerve glioma cell U87; format: cell-based; conditions: U87 cells, FIG. 14
Source text: FIG. 14 is an antiproliferative activity test diagram of compound 8, compound 11, compound 13, and compound 21 against a cranial nerve glioma cell U87.

[5] = small-molecule concentration of the inhibitor 20 μM, GLMSD

O=C(O)C(=O)CBr [3-BP, 3-bromopyruvic acid, reference compound]
median survival time [1]: 17 days

COc1ccc(CN2CCNCC2)c(OC)c1OC [TMZ, Trimetazidine, reference compound]
AUC(0-t) ([2]; read-out: AUC0-24 h): 247 µg·h/mL | Cmax ([2]; read-out: Cmax): 33700 ng/mL | half-life ([2]; read-out: T1/2 (converted)): 103 min | Tmax ([2]; read-out: Tmax): 30 min | glioma growth / survival rate, bioluminescence tracking ([1]; in situ U87-luciferase mice, compared with PBS): delays the growth of glioma | median survival time [1]: 35 days

COc1cccc(CNCCCn2ccnc2)c1OCc1ccc(F)cc1 [compound 8]
inhibitory effect on the HK2 [3]: good inhibitory effects | inhibition rate of HK2 activity [3, 5]: 44% | inhibitory effect on U87 [4]: inhibitory effects on U87

Cc1c(CCC(=O)NC2CS(=O)(=O)CC2O)c(=O)oc2cc(O)ccc12 (stereo not shown) [compound 11]
inhibitory effect on the HK2 [3]: good inhibition effect; also recorded: good inhibitory effects | inhibition at 20 µM [3, 5]: 29% | inhibitory effect on U87 [4]: inhibitory effects on U87

COc1ccccc1OCC(=O)NNC(=O)CCCC(=O)NNC(=O)COc1ccccc1OC [compound 21]
inhibitory effect on the HK2 [3]: good inhibitory effects | inhibition at 20 µM [3, 5]: 25% | inhibitory effect on U87 [4]: inhibitory effects on U87
